From ChEMBL document CHEMBL5143569 (Eur J Med Chem, 2022)

How the values were obtained:
[1] = biological target: Tyrosine-protein phosphatase non-receptor type 6 (Homo sapiens, UniProt P29350); assay: Inhibition of wild-type SHP1 (2 to 595 residues) (unknown origin) using DiFMUP as substrate and measured by biochemical assay
[2] = biological target: T1, Tyrosine-protein phosphatase non-receptor type 1 (Homo sapiens, UniProt P18031); assay: Inhibition of wild-type PTP1B (2 to 435 residues) (unknown origin) using DiFMUP as substrate and measured by biochemical assay
T1 sequence (P18031 whole entry): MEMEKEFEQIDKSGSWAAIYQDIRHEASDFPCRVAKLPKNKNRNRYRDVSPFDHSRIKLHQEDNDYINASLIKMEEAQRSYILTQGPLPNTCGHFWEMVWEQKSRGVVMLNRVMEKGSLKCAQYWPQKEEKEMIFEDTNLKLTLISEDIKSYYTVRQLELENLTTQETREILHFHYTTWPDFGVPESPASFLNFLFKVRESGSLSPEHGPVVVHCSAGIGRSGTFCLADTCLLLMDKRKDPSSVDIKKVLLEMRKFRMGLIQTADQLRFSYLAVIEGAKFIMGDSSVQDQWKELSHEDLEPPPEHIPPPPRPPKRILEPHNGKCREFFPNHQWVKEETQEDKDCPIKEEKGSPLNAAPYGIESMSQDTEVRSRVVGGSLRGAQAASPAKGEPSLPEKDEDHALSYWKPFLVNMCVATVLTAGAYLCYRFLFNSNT

[3] = Inhibition of SHP2 E76A mutant (unknown origin); design: species or system Homo sapiens
[4] = biological target: T2, Tyrosine-protein phosphatase non-receptor type 11 (Homo sapiens, UniProt Q06124)
T2 sequence (Q06124 whole entry): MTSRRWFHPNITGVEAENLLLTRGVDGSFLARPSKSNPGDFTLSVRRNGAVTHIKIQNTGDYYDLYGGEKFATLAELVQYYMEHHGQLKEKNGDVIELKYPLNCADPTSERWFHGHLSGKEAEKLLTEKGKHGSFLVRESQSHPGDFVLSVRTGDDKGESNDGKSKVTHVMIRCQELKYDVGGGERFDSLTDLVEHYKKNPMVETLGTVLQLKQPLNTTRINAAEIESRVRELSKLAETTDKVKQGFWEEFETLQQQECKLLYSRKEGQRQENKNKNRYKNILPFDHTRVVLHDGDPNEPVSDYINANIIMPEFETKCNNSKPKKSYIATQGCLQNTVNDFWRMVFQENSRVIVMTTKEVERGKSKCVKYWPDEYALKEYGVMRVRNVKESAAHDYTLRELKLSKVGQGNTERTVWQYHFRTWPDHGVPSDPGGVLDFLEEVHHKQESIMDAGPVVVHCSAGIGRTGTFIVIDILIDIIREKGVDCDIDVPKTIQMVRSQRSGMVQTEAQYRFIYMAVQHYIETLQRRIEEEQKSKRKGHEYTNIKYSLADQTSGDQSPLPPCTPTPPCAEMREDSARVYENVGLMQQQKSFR

[5] = biological target: T2, Tyrosine-protein phosphatase non-receptor type 11; remark: listed apart in the source
Description: Allosteric inhibition of recombinant human SHP2 PTP domain (237 to 535 residues) using DiFMUP as substrate preincubated for 30 mins and followed by substrate addition and measured by microplate reader method

[6] = biological target: T2, Tyrosine-protein phosphatase non-receptor type 11; assay: Reversible inhibition of wild-type human SHP2 using DiFMUP as substrate and measured by jump dilution assay

Sequence of Tyrosine-protein phosphatase non-receptor type 6 (P29350 whole entry, the tested form may be a part): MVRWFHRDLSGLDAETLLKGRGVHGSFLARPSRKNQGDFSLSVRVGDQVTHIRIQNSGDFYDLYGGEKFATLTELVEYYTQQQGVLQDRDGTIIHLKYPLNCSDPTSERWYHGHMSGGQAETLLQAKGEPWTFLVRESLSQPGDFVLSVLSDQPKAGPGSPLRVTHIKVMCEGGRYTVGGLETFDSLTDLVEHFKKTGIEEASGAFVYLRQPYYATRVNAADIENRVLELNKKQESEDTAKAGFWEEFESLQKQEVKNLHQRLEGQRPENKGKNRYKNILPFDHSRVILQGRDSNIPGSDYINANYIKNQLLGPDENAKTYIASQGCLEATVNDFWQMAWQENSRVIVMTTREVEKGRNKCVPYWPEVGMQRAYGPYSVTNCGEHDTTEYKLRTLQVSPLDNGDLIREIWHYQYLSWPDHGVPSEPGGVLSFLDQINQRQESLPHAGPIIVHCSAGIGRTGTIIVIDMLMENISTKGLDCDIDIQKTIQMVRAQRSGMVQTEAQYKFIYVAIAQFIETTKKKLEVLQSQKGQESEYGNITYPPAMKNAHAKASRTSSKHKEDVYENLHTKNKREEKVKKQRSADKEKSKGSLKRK

Row | Structure (SMILES) | IC50 [4] [µM] | IC50 [5] [µM] | further results
1 | CC1(N)CCN(c2cnc(-c3cccc(Cl)c3Cl)c(N)n2)CC1 | – | – | IC50 [1]: > 100 µM; IC50 [2]: > 100 µM
2 | CC1(N)CCN(c2nc(-c3ccc4cc(Br)ccc4c3)cs2)CC1 | – | – | IC50 [3]: 0.71 µM
3 | CC1(N)CCN(c2cnc(Sc3ccccc3Cl)c(N)n2)CC1 | 0.098 | > 10 | –
4 | CC1(N)CCN(c2cnc(Sc3cccc(Cl)c3Cl)c(N)n2)CC1 | 0.025 | > 10 | –
5 | CC1(CN)CCN(c2cnc(Sc3cccc(Cl)c3Cl)c(N)n2)CC1 | – | > 10 | IC50 [1]: > 100 µM; Ki [6]: 0.022 µM; IC50 [2]: > 100 µM
6 | COc1cccc(-c2nnc3n(Cc4ccc(C(=O)N5CCC[C@H]5C(=O)O)cc4Cl)c(=O)c4ccccc4n23)c1O | 60 | – | –
7 | CC1(N)CCN(c2cnc(Sc3cccc4ccccc34)c(N)n2)CC1 | 0.175 | > 10 | –
8 | CC1(N)CCN(c2cnc(SC3CCCCC3)c(N)n2)CC1 | 9.55 | > 10 | –
9 | CC1(O)CCN(c2cnc(-c3cccc(Cl)c3Cl)c(N)n2)CC1 | 13.7 | > 10 | –
10 | Nc1nc(N2CC[C@H](N)C2)cnc1-c1cccc(Cl)c1Cl | 2.03 | > 10 | –
11 | CN1CCN(c2cnc(-c3cccc(Cl)c3Cl)c(N)n2)CC1 | 0.695 | > 10 | –
12 | CC1(N)CCN(c2cnc(Sc3cccc(Cl)c3)c(N)n2)CC1 | 0.747 | > 10 | –
13 | NCC1CCN(c2cnc(Sc3cccc(Cl)c3Cl)c(N)n2)CC1 | 0.11 | > 10 | –
14 | CC1(N)CCN(c2cnc(-c3cccc(F)c3F)c(N)n2)CC1 | 5.71 | > 10 | –
15 | CC1(N)CCN(c2cnc(Sc3ccc4ccccc4c3)c(N)n2)CC1 | 0.976 | > 10 | –
16 | CC1(N)CCN(c2cnc(Sc3ccccc3C(F)(F)F)c(N)n2)CC1 | 0.178 | > 10 | –

Row | Structure (SMILES) | IC50 [4] [µM] | IC50 [5] [µM] | further results
17 | CC1(N)CCN(c2cnc(Sc3ccccc3)c(N)n2)CC1 | 0.811 | > 10 | –
18 | COc1ccccc1Sc1ncc(N2CCC(C)(N)CC2)nc1N | 0.079 | > 10 | –
19 | Cc1ccccc1Sc1ncc(N2CCC(C)(N)CC2)nc1N | 1.8 | > 10 | –
20 | CC1(N)CCN(c2cnc(-c3ccc(C#N)cc3)c(N)n2)CC1 | 14.8 | > 10 | –
21 | Cc1ccc(-c2ncc(N3CCC(C)(N)CC3)nc2N)cc1 | 9.03 | > 10 | –
22 | CC1(N)CCN(c2cnc(Sc3ccccc3F)c(N)n2)CC1 | 0.484 | > 10 | –
23 | Nc1nc(N2CCNCC2)cnc1-c1cccc(Cl)c1Cl | 0.712 | > 10 | –
24 | CC1(N)CCN(c2cnc(Sc3ccccc3Br)c(N)n2)CC1 | 0.059 | > 10 | –
25 | Nc1nc(N2CCC(N)CC2)cnc1-c1cccc(Cl)c1Cl | 2.77 | > 10 | –
26 | Nc1nc(N2CCC(O)CC2)cnc1-c1cccc(Cl)c1Cl | 6.18 | > 10 | –
27 | CNC1CCN(c2cnc(-c3cccc(Cl)c3Cl)c(N)n2)CC1 | 1.64 | > 10 | –
28 | NCCC1CCN(c2cnc(-c3cccc(Cl)c3Cl)c(N)n2)CC1 | 0.858 | > 10 | –
29 | CC1(N)CCN(c2cnc(SCc3ccccc3)c(N)n2)CC1 | 10.8 | > 10 | –
30 | CC1(N)CCN(c2cnc(Sc3ccc(Cl)cc3)c(N)n2)CC1 | 3.84 | > 10 | –
31 | CC1(N)CCN(c2cnc(SCc3ccccc3Cl)c(N)n2)CC1 | 5.6 | > 10 | –
32 | CN(CCN)c1cnc(-c2cccc(Cl)c2Cl)c(N)n1 | 9.66 | > 10 | –
